ChEMBL document CHEMBL5441456, “ASAP - SARS-CoV-2 nsp3 macrodomain dose response” (2024)
Several values for one entry are separate records, joined by “and”; a condition that tells them apart may be missing. Equal entries are not always repeated.

Biological target: Replicase polyprotein 1ab (Severe acute respiratory syndrome coronavirus 2, UniProt P0DTD1)
Experiment: Functional biochemical assay to identify treatments for viral infectious disease that targets SARS-COV-2 nsp3 macrodomain, whereby the mechanism of action displaces an ADP-Ribose modified peptide from the binding site. Utilizing a time-resolved fluorescence method to measure binding by reading the emitted fluorescence intensity in two wavelengths.

Row | Structure (SMILES) | IC50
1 | c1nc(-c2ccc3c(c2)OCO3)c2cc[nH]c2n1 | > 99.5 µM
2 | CCOC(=O)C1=C(Nc2cc(C)cc(C)c2)OCC1=O | > 99.5 µM
3 | O=C(O)C[C@@H](NC(=O)c1ccnc2ncccc12)c1ccc(Br)cc1 | 87.9 µM and 92.8 µM
4 | O=C(Nc1cccc2c(C(=O)N[C@@H](C(=O)O)c3ccc4c(c3)OCCO4)c[nH]c12)NC1CC1 | > 99.5 µM
5 | Cc1ccc(C(=O)Nc2ncnc3[nH]c(C)c(C)c23)cn1 | > 99.5 µM
6 | Cc1ccc2c(NC(=O)c3ccc(NC(=O)NC4CC4)cc3)c(C(=O)O)sc2n1 | > 99.5 µM
7 | COc1ccc([C@@H]2CCN(c3ncnc4[nH]ccc34)C2)cc1 | > 99.5 µM
8 | O=C(O)C[C@@H](NC(=O)c1ncnc2[nH]ccc12)c1ccc(NCC2C[C@@H](O)[C@@H](O)C2)cc1 (stereo not given in full) | 25 µM and 27.5 µM
9 | Cc1[nH]nc2ncc(C(=O)N[C@@H](c3ccc4c(c3)OCCO4)C(C)C)cc12 | > 99.5 µM
10 | Cn1cc([C@@H](NC(=O)c2c[nH]c3c(NC(=O)NC4CC4)cccc23)C2CCC2)cn1 | > 99.5 µM
11 | NS(=O)(=O)C[C@@H](NC(=O)c1ncnc2[nH]ccc12)c1ccc(Br)cc1 | > 99.5 µM
12 | Cc1nnc(N[C@@H](c2ccc3c(c2)OCCO3)C(C)C)c2ccccc12 | > 99.5 µM
13 | CC(C)[C@@H](Nc1ncnc2c1cnn2C)c1ccc2c(c1)OCCO2 | > 99.5 µM
14 | O=C(O)C[C@@H](NC(=O)c1cccc2cc[nH]c12)c1ccc(Br)cc1 | > 99.5 µM
15 | COCc1cc(CNc2ccc([C@@H](CC(=O)O)NC(=O)c3ncnc4[nH]ccc34)cc2)on1 | 10.6 µM and 12.4 µM
16 | Cc1[nH]c2ncnc(NC(=O)c3ccc(Cl)nn3)c2c1C | > 99.5 µM
17 | Cc1[nH]c2ncnc(NC(=O)c3ccnnc3)c2c1C | > 99.5 µM
18 | Cc1[nH]c2ncnc(NC(=O)c3cccc(Cl)n3)c2c1C | > 99.5 µM
19 | Cc1[nH]c2ncnc(NC(=O)c3ccncc3)c2c1C | > 99.5 µM
20 | Cc1[nH]c2ncnc(NC(=O)c3cccnn3)c2c1C | > 99.5 µM
21 | Cc1[nH]c2ncnc(NC(=O)c3ccc(-n4cccn4)nc3)c2c1C | > 99.5 µM
22 | COc1ccc2c(NC(=O)c3ccc(NC(=O)NC4CC4)cc3)c(C(=O)O)sc2c1 | > 99.5 µM
23 | Cc1[nH]c2ncnc(NC(=O)Cc3ccc(Cl)nc3)c2c1C | > 99.5 µM
24 | O=C(O)C[C@@H](CNC(=O)c1ncnc2[nH]ccc12)c1ccc(Cl)cc1 | 65.3 µM and 71.3 µM
25 | Cc1[nH]c2ncnc(NC(=O)c3cncnc3)c2c1C | > 99.5 µM
26 | COC(=O)C[C@@H](NC(=O)c1ncnc2[nH]ccc12)c1ccc(Br)cc1 | > 99.5 µM
27 | COCc1cc(CNc2ccc([C@@H](CC(=O)O)NC(=O)c3c[nH]c4ncncc34)cc2)on1 | > 99.5 µM

Row | Structure (SMILES) | IC50
28 | Cc1[nH]c2ncnc(NC(=O)c3ccc(N(C)C)nc3)c2c1C | > 99.5 µM
29 | Cc1cc2c(C(=O)N[C@@H](CC(=O)O)c3ccc(Br)cc3)cccc2[nH]1 | > 99.5 µM
30 | Cc1ncc(C(=O)Nc2ncnc3[nH]c(C)c(C)c23)cn1 | > 99.5 µM
31 | O=C(O)C[C@@H](NC(=O)c1ccnc2cn[nH]c12)c1ccc(Br)cc1 | 10.3 µM and 9.53 µM
32 | O=C(O)C[C@@H](NC(=O)c1cccc2[nH]cnc12)c1ccc(Br)cc1 | 39.2 µM and 40.3 µM
33 | CC(C)[C@@H](NC(=O)c1c[nH]c2c(NC(=O)NC3CC3)cccc12)C(F)F | > 99.5 µM
34 | CN(C)c1ccc(C(=O)N[C@@H](CC(=O)O)c2ccc(Br)cc2)nc1 | > 99.5 µM
35 | O=C(O)C[C@@H](NC(=O)Cc1c[nH]c2ncccc12)c1ccc(Br)cc1 | > 99.5 µM
36 | O=C(NCSC[C@@H](NC(=O)c1ncnc2[nH]ccc12)C(=O)O)c1ccccc1 | > 99.5 µM
37 | Cc1[nH]c2ncnc(NC(=O)c3ccc(C(F)(F)F)nc3)c2c1C | > 99.5 µM
38 | COc1ccc(C(=O)N2CCC(c3ccn4ncc(C(=O)N[C@@H]5CCC[C@@H]5C(=O)O)c4c3)CC2)cc1 | 20.2 µM and 24.6 µM
39 | O=C(O)C[C@@H](NC(=O)c1ccnc(-n2cccc2)c1)c1ccc(Br)cc1 | > 99.5 µM
40 | COc1cc(Nc2ccc([C@@H](CC(=O)O)NC(=O)c3ncnc4[nH]ccc34)cc2)n[nH]1 | 7.57 µM and 7.27 µM
41 | Cc1[nH]c2ncnc(NC(=O)c3cccnc3)c2c1C | > 99.5 µM
42 | CC(C)[C@@H](Nc1ncnc2c1ccn2C)c1ccc2c(c1)OCCO2 | > 99.5 µM
43 | O=C(O)C[C@@H](NC(=O)c1nccc2[nH]ncc12)c1ccc(Br)cc1 | 24.7 µM and 24.2 µM
44 | COC[C@@H]1C[C@@H]1CNc1ccc([C@@H](CC(=O)O)NC(=O)c2ncnc3[nH]ccc23)cc1 | 44.5 µM and 43.9 µM
45 | COc1ccc(C(=O)Nc2ncnc3[nH]c(C)c(C)c23)cn1 | > 99.5 µM
46 | Cc1[nH]c2ncnc(NC(=O)[C@@H]3Cc4ccccc4CO3)c2c1C | > 99.5 µM
47 | CNS(=O)(=O)C[C@@H](NC(=O)c1ncnc2[nH]ccc12)c1ccc(Br)cc1 | > 99.5 µM
48 | CC(C)[C@@H](CO)NC(=O)c1c[nH]c2c(NC(=O)NC3CC3)cccc12 | > 99.5 µM
49 | O=C(N[C@@H](Cc1nn[nH]n1)c1ccc(Br)cc1)c1ncnc2[nH]ccc12 | 1.92 µM and 2.11 µM
50 | CC(C)[C@@H](NC(=O)c1cnn(-c2ccccc2)n1)c1ccc2c(c1)OCCO2 | > 99.5 µM
51 | Cc1[nH]c2ncnc(NC(=O)c3ccc(C#N)nc3)c2c1C | > 99.5 µM
52 | Cc1[nH]c2ncnc(NC(=O)c3cnc(Cl)cn3)c2c1C | > 99.5 µM
53 | CC(C)[C@@H](Nc1nc(C(F)F)nc2ccccc12)c1ccc2c(c1)OCCO2 | > 99.5 µM
54 | Cc1[nH]c2ncnc(NC(=O)c3ccc(-n4cnnc4)cc3)c2c1C | > 99.5 µM

Row | Structure (SMILES) | IC50
55 | Cc1[nH]c2ncnc(NC(=O)[C@@H](CC(F)F)C3CCC3)c2c1C | 8.19 µM and 8.22 µM
56 | O=C(O)C[C@@H](NC(=O)c1cccc2[nH]ncc12)c1ccc(Br)cc1 | > 99.5 µM
57 | c1nc(NCc2ccc3c(c2)OCCO3)c2cc[nH]c2n1 | 80.3 µM and 93.9 µM
58 | Cc1[nH]c2ncnc(NC(=O)c3ncccc3Cl)c2c1C | 49.3 µM and 60.3 µM
59 | Cn1c(C(=O)O)c(NC(=O)c2ccc(NC(=O)NC3CC3)cc2)c2ccccc21 | > 99.5 µM
60 | O=C(Nc1ccc(C(=O)Nc2c(C(=O)O)sc3ncccc23)cc1)NC1CC1 | > 99.5 µM
61 | O=C(O)C[C@@H](NC(=O)c1c[nH]c2ncccc12)c1ccc(Br)cc1 | 27.4 µM and 29 µM
62 | COc1ccc([C@@H](Nc2ncnc3[nH]ccc23)C(C)C)cc1 | 6.36 µM and 8.21 µM
63 | NC(=O)[C@@H](NC(=O)c1ncnc2[nH]ccc12)c1ccc(F)cc1 | > 99.5 µM
64 | COc1ccc([C@@H](CC(=O)O)NC(=O)c2ncnc3[nH]ccc23)cc1 | 2.07 µM and 2.12 µM and 3.68 µM
65 | Cc1[nH]c2ncnc(NC(=O)[C@@H]3CCc4c(Cl)cccc43)c2c1C | > 99.5 µM
66 | C[C@@H]1Oc2ccc(Nc3ncnc4[nH]ccc34)cc2NC1=O | > 99.5 µM
67 | Cc1[nH]c2ncnc(NC(=O)c3cncc(Cl)n3)c2c1C | > 99.5 µM
68 | O=C(N[C@@H](Cc1ccc(Br)cc1)C(=O)O)c1ncnc2[nH]ccc12 | > 99.5 µM
69 | Cn1ncc2c(C(=O)N[C@@H](CC(=O)O)c3ccc(Br)cc3)ccnc21 | 70.2 µM and 81.7 µM
70 | CC(=O)Nc1ccc(C(=O)Nc2ncnc3[nH]c(C)c(C)c23)cc1Cl | > 99.5 µM
71 | O=C(Nc1cccc2c(C(=O)N[C@@H](CO)c3ccc4c(c3)OCCO4)c[nH]c12)NC1CC1 | > 99.5 µM
72 | Cc1nc2c(C(=O)N[C@@H](CC(=O)O)c3ccc(Br)cc3)ccnc2[nH]1 | 20.6 µM and 20.2 µM
73 | CC(C)[C@@H](NCc1ncc[nH]1)c1ccc2c(c1)OCCO2 | > 99.5 µM
74 | O=C(O)C[C@@H](NC(=O)c1cncc2[nH]ccc12)c1ccc(Br)cc1 | 35.8 µM and 41.3 µM
75 | C[C@@H](O)[C@@H](NC(=O)c1csc2c(NC(=O)NC3CC3)ncnc12)c1ccccc1F | > 99.5 µM
76 | Cc1ncc(CCNC(=O)c2csc3c(NC(=O)NC4CC4)ncnc23)s1 | > 99.5 µM
77 | COC[C@@H]1C[C@@H]1CNc1ccc([C@@H](CC(=O)O)NC(=O)c2c[nH]c3ncncc23)cc1 | > 99.5 µM
78 | Cc1[nH]c2ncnc(NC(=O)c3ccc(S(C)(=O)=O)nc3)c2c1C | > 99.5 µM
79 | O=C(Nc1ncnc2c(C(=O)N[C@@H](c3cccs3)C3CCCC3)csc12)NC1CC1 | > 99.5 µM
80 | CC(C)[C@@H](NCc1ccc(-n2cccn2)cc1)c1ccc2c(c1)OCCO2 | > 99.5 µM
81 | Cc1[nH]c2ncnc(NC(=O)Cc3cn[nH]c3)c2c1C | 75.2 µM and 99 µM

Row | Structure (SMILES) | IC50
82 | O=C(Nc1ccc(C(=O)Nc2c(C(=O)O)[nH]c3ccccc23)cc1)NC1CC1 | > 99.5 µM
83 | CC(C)[C@@H](Nc1ncnc2ncccc12)c1ccc2c(c1)OCCO2 | > 99.5 µM
84 | NC(=O)C[C@H](NC(=O)c1ncnc2[nH]ccc12)c1ccc(Cl)cc1 | > 99.5 µM
85 | CC(C)[C@@H](Nc1ncnc2ccccc12)c1ccc2c(c1)OCCO2 | 58.3 µM and 59.9 µM
86 | CC(C)[C@@H](NCc1ccc(-n2ccnc2)cc1)c1ccc2c(c1)OCCO2 | > 99.5 µM
87 | O=C(N[C@@H](CO)Cc1ccncc1)c1ncnc2[nH]ccc12 | > 99.5 µM
88 | Cn1ncc2c(N[C@@H](c3ccc4c(c3)OCCO4)C3CC3)ncnc21 | > 99.5 µM
89 | O=C(O)C[C@@H](NC(=O)c1cc2[nH]ccc2cn1)c1ccc(Br)cc1 | 6.82 µM and 7.54 µM
90 | O=C(Nc1cccc2c(C(=O)N[C@@H]3c4ccccc4C[C@@H]3C(=O)O)c[nH]c12)NC1CC1 | 3.47 µM and 3.78 µM and 2.28 µM and 1.85 µM
91 | c1nc(N2CCC[C@@H](Nc3ccc4c(c3)OCCO4)C2)c2cc[nH]c2n1 | > 99.5 µM
92 | CC(C)[C@@H](NC(=O)c1ccnc2ccccc12)c1ccc2c(c1)OCCO2 | > 99.5 µM
93 | O=C(O)C[C@@H](NC(=O)c1ccc2[nH]ccc2n1)c1ccc(Br)cc1 | 41.2 µM and 38.3 µM
94 | CCc1coc(Nc2ccc([C@@H](CC(=O)O)NC(=O)c3ncnc4[nH]ccc34)cc2)n1 | 13.9 µM and 15.5 µM
95 | Cc1[nH]c2ncnc(NC(=O)[C@@H]3CCCc4ncccc43)c2c1C | > 99.5 µM
96 | O=C(N[C@@H](C(=O)O)c1ccc(Br)cc1)c1ncnc2[nH]ccc12 | 52.1 µM and 62.9 µM
97 | O=C(O)C[C@@H](NC(=O)c1nccc2cc[nH]c12)c1ccc(Br)cc1 | 29.6 µM and 31.2 µM
98 | CC(C)[C@@H](NC(=O)c1ccccn1)c1ccc2c(c1)OCCO2 | > 99.5 µM
99 | CC(C)[C@@H](NC(=O)c1ccnc(-n2ccnc2)c1)c1ccc2c(c1)OCCO2 | > 99.5 µM
100 | Cn1ccc2c(C(=O)N[C@@H](CC(=O)O)c3ccc(Br)cc3)ccnc21 | 36.6 µM and 33.2 µM
101 | Cc1[nH]c2ncnc(NC(=O)c3cc(Cl)ccn3)c2c1C | > 99.5 µM
102 | O=C(N[C@@H]1CCC[C@@H]1C(=O)O)c1cnn2ccc(C3CCN(C(=O)c4ccc(Cl)c(Cl)c4)CC3)cc12 | 38 µM and 40.8 µM
103 | CC(C)[C@@H](NCc1cccc2[nH]ccc12)c1ccc2c(c1)OCCO2 | > 99.5 µM
104 | Cc1[nH]c2ncnc(C(=O)Nc3ccnc(Cl)c3)c2c1C | > 99.5 µM
105 | O=C(O)C[C@@H](NC(=O)c1cnc2[nH]ccc2c1)c1ccc(Br)cc1 | > 99.5 µM
